Measurements: patent US5624924A, “Quinobenzothiazine antineoplastic agents” (priority 1994, dated 1997)
“And” between values parts separate entries of the source, which are not always exact repeats. Identical values can stand only once. Counter-ions that a name gives are not always drawn. Values belong to the compound of their own block, whether it stands above or below them.

What was measured:
[1] = Aqueous solubility; assay type: physicochemical; details: water
Description: The effect of peptidyl substitution on the solubility of the compounds of the invention was examined by dissolving samples thereof in water.

[2] = tested on: B16F10 mouse melanoma; test: In vitro cytotoxicity (MTT), B16F10; assay type: cell-based; details: B16-F10, 72 h, read-out: In Vitro Cytotoxicity (IC50)
Protocol: (§1) Metabolic activity was measured by the cells' ability to reduce the tetrazolium dye, 3-(4,5-dimethylthiazol-2-yl)-2,5-diphenyltetrazolium bromide (MTT), to a quantifiable colored formasan derivative. Surviving cells reduce the MTT dye. The inhibitory concentrations of killing 50% of the cells (IC50 s) were calculated. Testing was in accord with the following protocol:
(§2) Test compounds and a reference antineoplastic agent, ADRIAMYCIN (doxorubicin hydrochloride), were dissolved in dimethyl sulfoxide (DMSO) and diluted, first with Earle's Balanced Salt Solution, followed by culture medium, to twice the highest concentration of the compound to be tested. From this concentrated stock, two-fold serial dilutions were prepared in 96-well microtiter trays, each well containing twice the desired final concentration of the compound. Each concentration was tested in triplicate and compared to triplicate drug-free controls.
(§3) The cells were grown in the same medium used for diluting the compounds. Adherent cells were harvested by trypsinization according to the following procedure:
(§4) After harvesting by trypsinization, viable cell counts were determined and cell density was adjusted to 25,000 cells/mL. Inoculum (0.1 mL) was then added to each well for a final concentration of 2,500 cells per well. Addition of the inoculum was used to dilute the test compounds to the desired concentration.
(§5) Microtiter trays were incubated for three days at 36° C. in a humidified atmosphere containing 5% carbon dioxide.
(§6) After three days, 20 microliters of 5 mg/mL MTT in phosphate-buffered solution were added to each well of the microtiter trays. The microtiter trays were then returned to the incubator for two to four hours to allow the surviving cells to reduce the dye. After this incubation, both the medium and the unreduced dye were removed by aspiration. DMSO was added to each well to dissolve the water-insoluble, colored end product of the dye reduction for spectrophotometric measurement at 570 nm.
(§7) Compounds from Examples 4, 6, 8, 9 and 10 were additionally tested against human and murine tumor cell lines A549, HT-29, P388-D1, P388, P388-ADR(0.0), P388-ADR(0.1) and B16F109. (P388 is a mouse leukemia cell line similar to P388-D1, but animal-passaged; P388-ADR (0.0) is an ADRIAMYCIN-resistant variant of P388, the inoculum of which is grown in drug-free medium; P388-ADR (0.1) is an ADRIAMYCIN-resistant variant of P388, the inoculum of which is grown in medium with 0.1 mcg.ml ADRIAMYCIN; and B16F10 is a mouse melanoma.) The results are presented in Table 2; as shown in the table, the compounds of the present invention are effective cytotoxic agents even against the ADRIAMYCIN-resistant cell line P388-ADR.

[3] = tested on: A549 human lung cancer cell line; test: In vitro cytotoxicity (MTT), A549; assay type: cell-based; details: A549, 72 h, read-out: In Vitro Cytotoxicity (IC50), A549, Table 2, ADR: average of two tests
Protocol: as §1, §2, §3, §4, §5, §6
(§8) The results obtained which clearly show the cytotoxicity of the compounds of Examples 5, 6, 7 and 8 against […] tumor cell lines A549, HCT-8, HT-29 and P388-D1, are illustrated in Table 1. (A549 is a human lung cancer cell line; HCT-8 is a human colon cancer cell line; HT-29 is a human colon cancer cell line; and P388-D1 is a mouse leukemia cell line.)

[4] = tested on: HT-29 human colon cancer cell line; test: In vitro cytotoxicity (MTT), HT-29; assay type: cell-based; details: HT-29, 72 h, read-out: In Vitro Cytotoxicity (IC50), HT-29, Table 2, ADR: average of two tests
Protocol: as §1, §2, §3, §4, §5, §6, §8

[5] = tested on: P388-ADR(0.0), ADRIAMYCIN-resistant variant of P388; test: In vitro cytotoxicity (MTT), P388-ADR(0.0); assay type: cell-based; details: Mus musculus, 72 h, inoculum grown in drug-free medium, Table 2
Protocol: as §1, §2, §3, §4, §5, §6, §7

[6] = tested on: P388 mouse leukemia cell line; test: In vitro cytotoxicity (MTT), P388; assay type: cell-based; details: P388, 72 h, read-out: In Vitro Cytotoxicity (IC50)
Protocol: as §1, §2, §3, §4, §5, §6, §7

[7] = tested on: P388 ascitic leukemia; test: In vivo activity against systemic tumor P388; design: species or system mouse; details: 20 mg/kg IP once daily, five days; positive control
Protocol: Prior to testing, P388 was propagated intraperitoneally in female DBA2 mice. The ascitic tumors were intraperitoneally injected in female B6 D2 F1 mice at a concentration of 10^6 cells per mouse. The mice were treated with antiumor agents administered once daily for five consecutive days, with the antineoplastic 5-fluorouracil used as a positive control.
All drugs were administered intraperitoneally in 5% aqueous dextrose or other suitable diluent. Drug efficacy was evaluated based on prolongation of mean survival time (MST). Improvement of MST was calculated as % MST(T/C), the percent ratio of mean survival times of test (T) versus control (C) mice. Compounds having % MST(T/C) values greater than 125 are considered to have significant activity. The antitumor activity of the two compounds in the P388 systemic leukemia model is illustrated in Table 3 below.

[8] = tested on: C-26 colon adenocarcinoma; test: In vivo activity against C-26 implanted intraperitoneally (Example 44); design: species or system mouse
Protocol: (§9) The title compound of Example 37 above was tested against solid tumors in mice, using 1,3-bis(2-chloroethyl)-1-nitrosourea (BCNU) as a positive control. The tumor lines were M5076, an ovarian sarcoma implanted intraperitoneally (IP), and C-26, a colon adenocarcinoma, implanted intraperitoneally (IP) and subcutaneously (SC) in separate trials.
(§10) All drugs were administered in 5% aqueous dextrose or other suitable diluent. Drug efficacy was determined by prolonged survival times of the test animals or reduced tumor mass as compared to negative controls. Test groups consisted of 10 mice. Control groups consisted of 20 mice. Animals were of one sex and of similar weight. Prior to testing, the tumor cell lines were propagated in BALB/cj mice. Tumor implants were aliquots of a donor pool brei,
(§11) In the IP trials, the mean survival time (MST) of the groups of mice was determined, not counting animals surviving at the conclusion of the trial, and the mean lifespan comparison value of % MST(T/C) calculated, which value represents the ratio of treated to control group MST's expressed as a percentage.
For C-26 colon adenocarcinoma, the tumor was implanted into CD2 F1 mice, IP and SC in separate trials. For the C-26 IP trial, the tumor was implanted IP on day 0. The test compound were administered four times a day IP from day 1 to day 9 for a total of nine days. BCNU was administered four times a day on days 1, 5 and 9.

[9] = tested on: M5076 ovarian sarcoma; test: In vivo activity against M5076 implanted intraperitoneally (Example 44); design: species or system mouse
Protocol: as §9, §10, §11
For M5076 ovarian sarcoma, the tumor was implanted IP into BDF1 mice on day 0. The test compound was administered four times a day IP from day 1 to day 9 for a total of nine days.

[10] = tested on: C-26 colon adenocarcinoma; test: In vivo activity against C-26 implanted subcutaneously (Example 44); design: species or system mouse
Protocol: as §9, §10
For the C-26 SC trial, the tumor was implanted SC into mice on day 0. The test compound was administered four times a day IP from day 1 to day 9 for a total of nine days. BCNU was administered four times a day on days 1, 5, and 9. The mean tumor masses were determined on day 11 and day 21, and the experiment terminated on day 60. The mean tumor mass (MTM) inhibition value of % MTM(T/C) was calculated, which value represents the ratio of treated to control group MTM's expressed as a percentage.

[11] = 10 mg/kg, compound 37 days 1-9, BCNU days 1, 5, 9
[12] = day 11, 10 mg/kg, compound 37 days 1-9, BCNU days 1, 5, 9
[13] = day 21, 10 mg/kg, compound 37 days 1-9, BCNU days 1, 5, 9

solubility [1]: > 47.8 mg/mL
Compound: CCC[C@H](N)C(=O)N[C@@H](C)C(=O)NC1CCN(c2c(F)cc3c(=O)c(C(=O)O)cn4c3c2Oc2ccccc2-4)C1 (stereo partly drawn) [Example 40, 1-(3-Norvalylalanylaminopyrrolidin-1-yl)-2-fluoro-4-oxo-4H-quino[2,3,4-i,j][1,4]benzoxazine-5-carboxylic acid hydrochloride]

solubility [1]: 11.1 mg/mL
Compound: CCC[C@H](NC(=O)[C@@H](N)CCC)C(=O)NC1CCN(c2c(F)cc3c(=O)c(C(=O)O)cn4c3c2Oc2ccccc2-4)C1 (stereo partly drawn) [Example 38, 1-(3-Norvalylnorvalylaminopyrrolidin-1-yl)-2-fluoro-4-oxo-4H-quino[2,3,4-i,j][1,4]benzoxazine-5-carboxylic acid hydrochloride]

Compound: CCC[C@H](N)C(=O)NC1CCN(c2c(F)cc3c(=O)c(C(=O)O)cn4c3c2Oc2cc(C)ccc2-4)C1 (stereo partly drawn) [Example 10, 1-(3-norvalylaminopyrrolidin-1-yl)-2-fluoro-9-methyl-4-oxo-4H-quino[2,3,4-i,j][1,4]benzoxazine-5-carboxylic acid hydrochloride]
IC50 [2]: 0.0573 mg/L | IC50 [3]: 0.187 mg/L | IC50 [4]: 0.0875 mg/L | IC50 [5]: 0.447 mg/L | IC50 [6]: 0.108 mg/L

Compound: N[C@H]1CCN(c2c(F)cc3c(=O)c(C(=O)O)cn4c3c2Oc2ccccc2-4)C1 [Example 16, 1((3S)-3-aminopyrrolidin-1-yl)-2-fluoro-4-oxo-4H-quino[2,3,4-i,j][1,4]benzoxazine-5-carboxylic acid hydrochloride]
IC50 [2]: 0.018 mg/L | IC50 [3]: 0.23 mg/L | IC50 [4]: 0.055 mg/L | IC50 [5]: 0.12 mg/L | IC50 [6]: 0.017 mg/L

Compound: O=c1[nH]cc(F)c(=O)[nH]1 [5-Fluorouracil, 5-fluorouracil, reference compound]
% MST(T/C) [7]: 160% and 186.67%

Compound: C[C@H](N)C(=O)N[C@@H](C)C(=O)NC1CCN(c2c(F)cc3c(=O)c(C(=O)O)cn4c3c2Oc2ccccc2-4)C1 (stereo partly drawn) [Example 37, 1-(3-Alanylalanylaminopyrrolidin-1-yl)-2-fluoro-4-oxo-4H-quino[2,3,4-i,j][1,4]benzoxazine-5-carboxylic acid hydrochloride]
% MST(T/C) ([8]; 2.5 mg/kg IP days 1-9): 147% | MST ([8]; 2.5 mg/kg IP days 1-9): 30.3 | % MST(T/C) ([8]; 5 mg/kg IP days 1-9): 174% | MST ([8]; 5 mg/kg IP days 1-9): 36.0 | % MST(T/C) [8, 11]: 195% | MST [8, 11]: 40.2 | test animals that survived the trial ([8]; 20 mg/kg (footnote a)): Three of ten test animals survived the trial | % MST(T/C) ([8]; 20 mg/kg IP days 1-9): 197% | MST ([8]; 20 mg/kg IP days 1-9): 40.7 | improvement in survival time ([8]; C-26 IP, in words): significant improvement in survival time | test animals that survived the trial ([9]; 12.5 mg/kg (footnote b)): One of ten test animals survived the trial | % MST(T/C) ([9]; 12.5 mg/kg IP days 1-9): 215% | MST ([9]; 12.5 mg/kg IP days 1-9): 44.6 | Toxicity due to the test compound ([9]; 25 mg/kg (footnote a)): Toxicity due to the test compound noted | % MST(T/C) ([9]; 25 mg/kg IP days 1-9): 45% | MST ([9]; 25 mg/kg IP days 1-9): 9.3 | Toxicity due to the test compound ([9]; 50 mg/kg (footnote a)): Toxicity due to the test compound noted | % MST(T/C) ([9]; 50 mg/kg IP days 1-9): 21% | MST ([9]; 50 mg/kg IP days 1-9): 4.4 | Toxicity due to the test compound ([9]; 100 mg/kg (footnote a)): Toxicity due to the test compound noted | % MST(T/C) ([9]; 100 mg/kg IP days 1-9): 15% | MST ([9]; 100 mg/kg IP days 1-9): 3.2 | improvement in survival time ([9]; M5076 IP, in words): significant improvement in survival time | % MTM(T/C) ([10]; day 11, 2.5 mg/kg): 97% | MTM ([10]; day 11, 2.5 mg/kg): 302 mg | % MTM(T/C) ([10]; day 11, 5 mg/kg): 66% | MTM ([10]; day 11, 5 mg/kg): 205 mg | % MTM(T/C) [10, 12]: 24% | MTM [10, 12]: 74 mg | % MTM(T/C) ([10]; day 11, 20 mg/kg): 0% | MTM ([10]; day 11, 20 mg/kg): 0 mg | % MTM(T/C) ([10]; day 21, 2.5 mg/kg): 79% | MTM ([10]; day 21, 2.5 mg/kg): 2617 mg | % MTM(T/C) ([10]; day 21, 5 mg/kg): 75% | MTM ([10]; day 21, 5 mg/kg): 2462 mg | % MTM(T/C) [10, 13]: 41% | MTM [10, 13]: 1336 mg | % MTM(T/C) ([10]; day 21, 20 mg/kg): 5% | MTM ([10]; day 21, 20 mg/kg): 169 mg | activity against tumor implanted subcutaneously ([10]; days 11 and 21, in words): significantly active | solubility [1]: 28.2 mg/mL
